Source: patent US5681961A, “Arylsulphonamides, pharmaceutical compositions containing these compounds and processes for preparing them” (Dr. Karl Thomae GmbH, priority 1989, dated 1997)
“And” between values parts separate entries of the source, which are not always exact repeats. Equal values may be shown once.

Assays:
thromboxane synthetase = molecular target: T1, thromboxane synthetase (Homo sapiens, UniProt P24557); test: Inhibitory effect on thromboxane synthetase (TXB2 formation from arachidonic acid in human platelets); format: biochemical; conditions: inhibition of TXB2 formation, human platelet suspension, 14C-arachidonic acid
T1 construct: endogenous in cells; host or cells: washed human platelets (platelet-rich plasma passed through Sepharose 2B)
T1 sequence (P24557 1-533): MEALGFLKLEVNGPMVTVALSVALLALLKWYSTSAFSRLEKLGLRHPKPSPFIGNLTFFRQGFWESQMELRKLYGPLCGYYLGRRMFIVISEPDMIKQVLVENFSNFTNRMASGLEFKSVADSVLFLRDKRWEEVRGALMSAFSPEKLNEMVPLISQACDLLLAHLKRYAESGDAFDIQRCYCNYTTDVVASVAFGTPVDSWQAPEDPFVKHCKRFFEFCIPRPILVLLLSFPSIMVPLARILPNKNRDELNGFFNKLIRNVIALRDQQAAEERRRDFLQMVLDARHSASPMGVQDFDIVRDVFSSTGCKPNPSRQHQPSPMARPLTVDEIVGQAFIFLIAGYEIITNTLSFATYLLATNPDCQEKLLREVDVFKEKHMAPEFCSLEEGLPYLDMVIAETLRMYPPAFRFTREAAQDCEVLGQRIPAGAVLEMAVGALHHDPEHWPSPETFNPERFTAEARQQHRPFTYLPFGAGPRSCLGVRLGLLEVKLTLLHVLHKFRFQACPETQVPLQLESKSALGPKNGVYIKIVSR
Method: Venous human blood is anti-coagulated with 13 mM Na3 citrate and centrifuged for 10 minutes at 170×g. The supernatant platelet-rich plasma is passed through a Sepharose 2B column in order to remove the plasma proteins. Aliquots of the platelet suspension obtained are incubated with the test substance or with a solvent as control for 10 minutes at ambient temperature and after the addition of ^14 C-labelled arachidonic acid incubation is continued for a further 10 minutes. After this has been stopped with 50 μl of citric acid, extraction is carried out 3× with 500 μl of ethyl acetate and the combined extracts are distilled off with nitrogen. The residue is taken up in ethyl acetate, placed on TLC film and separated with chloroform:methanol:glacial acetic acid:water (90:8:1:0.8, v/v/v/v). The dried TLC films are placed on X-ray film for 3 days, the autoradiograms were developed and the active zones were marked on the film using the autoradiograms. After cutting out, the activity is measured in a scintillation counter and the inhibition of the formation of TXB2 is calculated. The IC50 is determined by linear interpolation.

[1] = tested on: collagen-induced thrombocyte aggregation in platelet-rich plasma; test: Antithrombotic activity: collagen-induced thrombocyte aggregation (Born and Cross); format: cell-based, human (healthy volunteers); conditions: Homo sapiens, 10 min, 10 min incubation at 37° C.
Method: The thrombocyte aggregation is measured using the Born and Cross method (J. Physiol. 170: 397 (1964)) in platelet-rich plasma taken from healthy volunteers. To inhibit coagulation the blood is mixed with 3.14% sodium citrate in a ratio by volume of 1:10.
The pattern of the decrease in optical density of the platelet suspension is photometrically measured and recorded after the addition of aggregation-triggering substance. The rate of aggregation is concluded from the angle of inclination of the density curve. The point on the curve where there is maximum light transmittance is used to calculate the optical density.
The amount of collagen used is as small as possible but sufficient to produce an irreversible reaction curve. Standard commercial collagen produced by Hormonchemie of Munich is used. Before the addition of the collagen the plasma is incubated for 10 minutes with the substance at 37° C.
From the measurements obtained an EC50 is determined graphically, indicating a 50% change in the optical density in terms of the inhibition of aggregation.

mice = test: Acute toxicity, oral, mice; format: in vivo, mouse; conditions: observation period 14 days; for animals died: 250 mg/kg single oral dose; for Approximate acute toxicity: single oral dose
Method: The acute toxicity of the test substances was determined as a guide on groups of 10 mice after oral administration of a single dose (observation period: 14 days): […]

thromboxane = molecular target: T2, thromboxane (Homo sapiens, UniProt P21731); test: Thromboxane-antagonistic activity: displacement of 3H-labelled ligand on washed human platelets; format: binding; conditions: displacement of 3H-ligand, human platelet suspension, 60 min ambient temperature
T2 construct: endogenous in cells; host or cells: washed human platelets (platelet-rich plasma passed through Sepharose 2B)
T2 sequence (P21731 1-343): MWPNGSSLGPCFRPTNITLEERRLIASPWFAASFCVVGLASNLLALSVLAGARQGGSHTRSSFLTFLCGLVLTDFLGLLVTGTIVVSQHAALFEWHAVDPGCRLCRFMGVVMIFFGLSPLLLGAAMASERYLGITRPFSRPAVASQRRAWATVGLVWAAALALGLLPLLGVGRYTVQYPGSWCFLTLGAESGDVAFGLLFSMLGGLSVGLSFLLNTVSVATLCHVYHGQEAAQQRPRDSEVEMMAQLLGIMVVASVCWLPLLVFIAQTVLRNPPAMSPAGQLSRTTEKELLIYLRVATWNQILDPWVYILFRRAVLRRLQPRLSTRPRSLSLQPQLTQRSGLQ
Method: Venous human blood is anti-coagulated with 13 mM Na3 citrate and centrifuged for 10 minutes at 170×g. The supernatant platelet-rich plasma is passed through a Sepharose 2B column in order to remove the plasma proteins. Aliquots of the platelet suspension obtained are incubated with the test substance, the ligand (^3 H-labelled) and a marker ([…]) for 60 minutes at ambient temperature and then centrifuged for 20 seconds at 10,000×g. The supernatant is removed and the pellet is dissolved in NaOH. The ^3 H activity in the supernatant corresponds to the free ligand, ^14 C gives the concentration of the marker. ^3 H in the pellet corresponds to the bound ligand whilst ^14 C is used to correct for the ligand in the extracellular space. After the process has been repeated, the displacement curve is determined from the binding values for different concentrations of the test substance and the IC50 is determined.

[2] = tested on: bronchospasm induced by arachidonic acid; test: Inhibition of bronchospasm induced by arachidonic acid; format: in vivo, guinea-pig; conditions: Cavia porcellus, iv; guinea-pigs, injected 10 min before arachidonic acid (0.5-2.0 mg/kg i.v.); graphical extrapolation
Method: Guinea-pigs anaesthetised with ethyl urethane and ventilated artificially under pressure limitation are intravenously injected with arachidonic acid (a thromboxane precursor) and the consequent bronchospasms are recorded using a modified form of the method of Konzett and Rossler. The doses of arachidonic acid (0.5-2.0 mg/kg) are selected so as to give a 60% reduction in tidal volume. Increasing doses of test substance B are injected 10 minutes before the arachidonic acid. The percentage inhibition of reduction in tidal volume is determined by comparison of the maximum reduction after the administration of arachidonic acid and the corresponding value after pretreatment with the test substance.

[3] = tested on: production of thromboxane and PGE2 in an isolated lung; test: Effect on production of thromboxane and PGE2 in an isolated lung; set-up: species or system guinea-pig
Method: Guinea-pigs are killed by a blow to the neck, the lungs are rapidly removed and washed with a tyrode solution through the pulmonary artery. The lung is perfused with the same solution (0.5 ml/min.) and ventilated under negative pressure (frequency: 52 breaths per minute, maximum pressure -20 cm H2 O). A 0.1 ml bolus of bradykinin (0.2 μM) is injected via the pulmonary arteria on two occasions, with approximately 60 minutes between boli. From 30 minutes before the second bradykinin injection 1 μM of substance B is continually added to the lung perfusate. The control lungs are perfused without the added substance. The perfusate is collected for 2 minutes be administration of bradykinin and 10 minutes thereafter. The samples are left to stand for 20 minutes at ambient temperature (conversion of thromboxane A2 into B2) and are then frozen at -20° C.
The concentrations of thromboxane B2 and PGE2 are determined by radioimmunoassay.

[4] = tested on: lethal effects of endotoxin (E. coli 0111:B4 lipopolysaccharide); test: Inhibition of the lethal effects of endotoxin; format: in vivo, rat (male Sprague-Dawley)
Method: Male Sprague-Dawley rate are primed by intravenous injection with 0.1 mg/kg of endotoxin (a lipopolysaccharide from E. coli 0111:B4) one week before the main study. In the main study, a potentially lethal dose of E. coli (40 mg/kg) is injected intravenously and the subsequent mortality recorded over an observation period of seven days.
The test animals are given test substance B as a suspension in 0.5% tylose by oral route one hour before and 4, 8, 24 and 48 hours after the second injection of endotoxin.

[5] = 1 mg/kg oral at each dosage time point (1 h before, 4, 8, 24, 48 h after endotoxin)
[6] = 10 mg/kg oral at each dosage time point (1 h before, 4, 8, 24, 48 h after endotoxin)

SMILES | IC50 (thromboxane synthetase) | EC50 [1] | animals died (mice) | Approximate acute toxicity (mice) | IC50 (thromboxane) | ED50 [2] | effect on formation of PGE2 (in words) ([3]; 1 μM in lung perfusate) | effect on thromboxane production (in words) ([3]; 1 μM in lung perfusate) | Ratio of mediator release after 2nd / after 1st administration of bradykinin: Thromboxane B2 ([3]; 1 μM in perfusate at time of 2nd bradykinin, individual values, control 1.18, 0.50, 0.84) | Ratio of mediator release after 2nd / after 1st administration of bradykinin: PGE2 ([3]; 1 μM in perfusate at time of 2nd bradykinin, individual values, control 1.28, 1.12, 1.09) | Rats alive/total after 2 days [4, 5] | Rats alive/total after 7 days [4, 5] | Rats alive/total after 2 days [4, 6] | Rats alive/total after 7 days [4, 6]
O=C(O)CCCC=C(c1ccc(CCNS(=O)(=O)c2ccc(C(F)(F)F)cc2)cc1)c1cccnc1 [E] | 0.006 µM | 0.1 µM | 0 out of 10 | 250 mg/kg | 0.028 µM | – | – | – | – | – | – | – | – | –
O=C(O)CCCC=C(c1ccc(CCNS(=O)(=O)c2ccc(Cl)cc2)cc1)c1cccnc1 [B] | 0.0008 µM | 0.15 µM | 0 out of 10 | 250 mg/kg | 0.02 µM | 8.1 µg/kg | promoting the formation of PGE2 | hinders thromboxane production | 0.0 | 5.08 and 2.23 | 7/10 | 6/10 | 8/10 | 5/10
Cc1ccc(S(=O)(=O)NC2Cc3ccc(C(=CCCCC(=O)O)c4cccnc4)cc3C2)cc1 (stereo not shown) [A] | 0.003 µM | 0.3 µM | 0 out of 10 | 250 mg/kg | 0.023 µM | – | – | – | – | – | – | – | – | –
O=C(O)CCCCC(c1ccc(CCNS(=O)(=O)c2ccc(Cl)cc2)cc1)c1cccnc1 (stereo not shown) [D] | 0.001 µM | 1.2 µM | 0 out of 10 | 250 mg/kg | 0.08 µM | – | – | – | – | – | – | – | – | –
O=C(O)CCCCC(c1cccnc1)c1ccc2c(c1)CC(NS(=O)(=O)c1ccc(Cl)cc1)C2 (stereo not shown) [C] | 0.003 µM | 0.3 µM | 0 out of 10 | 250 mg/kg | 0.08 µM | – | – | – | – | – | – | – | – | –
